Test results published in patent US20060040911A1, “Method for preventing and/or treating the cardiovascular and hepatic diseases induced by hyperlipidemia which comprises administered an effective amount of bioflavonoids extract derived from fructus crataegus (lipid metabolism and fructus crataegus)” (priority 2003, published 2006).

Legend:
[1] = system: liver of rabbits fed 1% cholesterol diet; assay: Fatty degeneration in the liver of the rabbits; type: in vivo, rabbit; conditions: 1% cholesterol plus 0.15% bioflavonoid or 1.5 mg/kg Simvastatin
Description: According to the report of Fogt F. and Nanji A., (Toxicology and Applied Pharmacology; 136, pp 87-93, 1996) and Keegan A. et al., (Journal of Hepatology; 23, pp 591-600, 1995). […]

3-HMG-CoA reductase = target: T1, 3-HMG-CoA reductase (Oryctolagus cuniculus, UniProt Q29512); assay: Activity of 3-HMG-CoA reductase in liver microsomes (modified Hulcher's method); type: biochemical, rabbit; conditions: liver microsomes of rabbits fed 8 weeks 1% cholesterol plus 0.15% bioflavonoid; control group 0%
T1 construct: ultracentrifuged at 100,000 times gram for 60 minutes and again for another 60 minutes to obtain microsomal precipitates; from tissue; host or cells: rabbit liver microsomes
T1 sequence (Q29512 1-888): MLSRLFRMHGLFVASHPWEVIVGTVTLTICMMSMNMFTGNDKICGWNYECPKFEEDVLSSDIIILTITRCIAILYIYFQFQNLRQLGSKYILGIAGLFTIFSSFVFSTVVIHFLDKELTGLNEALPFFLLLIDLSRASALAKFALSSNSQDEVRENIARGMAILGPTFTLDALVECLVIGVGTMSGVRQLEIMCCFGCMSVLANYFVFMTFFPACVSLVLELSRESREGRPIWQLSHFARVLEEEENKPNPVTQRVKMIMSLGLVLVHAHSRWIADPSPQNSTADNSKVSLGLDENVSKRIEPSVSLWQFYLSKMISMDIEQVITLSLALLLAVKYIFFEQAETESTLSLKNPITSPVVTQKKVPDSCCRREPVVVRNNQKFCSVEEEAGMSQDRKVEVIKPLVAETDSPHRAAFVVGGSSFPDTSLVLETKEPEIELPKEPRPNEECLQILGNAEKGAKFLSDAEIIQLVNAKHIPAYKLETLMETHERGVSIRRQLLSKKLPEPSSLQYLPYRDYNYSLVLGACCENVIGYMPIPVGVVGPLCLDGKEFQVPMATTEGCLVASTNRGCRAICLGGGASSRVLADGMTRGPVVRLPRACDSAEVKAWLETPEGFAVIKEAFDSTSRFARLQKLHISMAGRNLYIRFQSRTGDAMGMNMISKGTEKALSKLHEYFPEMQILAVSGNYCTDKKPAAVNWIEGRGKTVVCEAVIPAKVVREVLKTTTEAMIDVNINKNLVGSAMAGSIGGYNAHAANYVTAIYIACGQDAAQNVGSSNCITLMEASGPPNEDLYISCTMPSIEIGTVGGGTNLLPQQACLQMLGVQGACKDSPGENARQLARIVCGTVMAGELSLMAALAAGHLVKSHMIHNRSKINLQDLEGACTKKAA
Experimental: The activity of 3-HMG-CoA reductase was determined by modified Hulcher's method (Journal of lipid research; 14, 625-641, 1973), in which the concentration of Co-A will be produced when 3-HMG-CoA is reduced to mevalonate salt by the action of the 3-HMG-CoA reductase; then the reductase was determined by spectroscopy and the activity of the 3-HMG-CoA reductase was calculated.
Liver tissues from each group of rabbits from Example 4 Step B were obtained, 3 gram of tissue was washed with 100 ml of cold normal saline (1 N NaCl) and 100 ml of cold buffer solution-A (0.1M triethanolamine HCl/10 mM EDTA/10 mM dithiothreitol (DTT)). A cold buffered solution-A and liver tissue ratio was 2 ml per each gram. Then the mixture was minced and homogenized with a homogenizer, the homogenate was centrifuged at 20,000 times gram for 15 minutes, the supernatant was ultracentrifuged at 100,000 times gram for 60 minutes and again for another 60 minutes to obtain microsomal precipitates. The precipitates were washed with cold buffer solution-A and kept at minus 70 degree C. till ready for analysis.
There were 3 reactive substrates used in this assay (a) buffer solution B; 0.1 M triethanolamine HCl/10 mM EDTA with ph 7.4 (b) 3-HMG-CoA solution; 150 mu.moles/culture medium, (c) NADPH solution; 2 mu.moles/culture medium.
The microsomal suspension was then mixed with reaction substrates in a centrifuge tube and allowed to react at 37 degree C. for 30 minutes, then added with 20 mu 1 of 10 mM sodium arsenous solution and allowed to react for 1 minute, and then added with 100 µl of citrate buffer solution (2M sodium citrate/3 M sodium tungstate, with Ph of 3.5) at 37 degree C. for 10 minutes, then centrifuged at 30,000 times gram for 15 minutes to remove protein. […]
The mixture was then added with 20 µl of DTNB buffer solution (3 mM DTNB/0.1M triethanolamine/10 mM EDTA with PH of 7.4). The absorbance of this mixture was determined at wave length of 412 nm to calculate the amount of CoA that is the activity of 3-HMG-CoA reductase.

ICR female mice = conditions: single oral dose (rutin 1500, quercetin 125, kaempherol 1000, vitexin 500 mg/kg), observed 30 days
[2] = system: thoracic aorta of rabbits fed 1% cholesterol diet; assay: Analysis for fatty streak deposition in thoracic aorta; type: in vivo, rabbit; conditions: microscopic pictures, 1% cholesterol plus 0.15% bioflavonoid or 1.5 mg/kg simvastatin, control: thick layer
Experimental: The chest wall of each rabbit (sacrificed in Step B) was incised, a portion of thoracic aorta from 1 cm site above aortic valve downward for 5 cm was cut out. The surrounding fatty tissues were removed, the aorta was incised longitudinally and pinned to a dish. The moist aorta was then photographed, and staining of fatty streak was carried out with the method described by Esper, E. et al. (Journal of Lab. Clinical Medicine; 121, pp 103-110(1993)) as follows.
The opened portion of aortas were pinned to a wooden tongue depressor, washed three times for 2 minutes with anhydrous propylene glycol and stained for 30 minutes with saturated solution of Oil Red O dissolved in propylene glycol. Then the aortas were washed twice for 3 minutes with 85% propylene glycol, to remove remaining staining solution by washing with normal saline solution. The aortas were photographed, and the photographs were traced with an image analyzer (LEICA, Q-600, Germany), and the area of stained portion were fatty streak region, its proportion in percentile (%) to the total aorta area were calculated.

Compound | microscopic features of the liver (FIGS. 2B-2F) [1] | Inhibition on the activity of 3-HMG-CoA reductase in percentage (%) (3-HMG-CoA reductase) | body weight (ICR female mice) | survival (ICR female mice) | macrophage lipid cell complex in the aorta walls (FIGS. IB-IF) [2]
O=c1cc(-c2ccc(O)cc2)oc2c(C3O[C@H](CO)[C@@H](O)[C@H](O)[C@H]3O)c(O)cc(O)c12 (stereo partly drawn) [Vitexin, 8-D-glucosyl-4′,5,7 trihydroxy-flavone] | almost all of the liver cells are normal without containing fat particles | 30 | no body weight loss | alive at day 31 | no or a very thin layer of macrophage lipid cell complex
O=c1c(O)c(-c2ccc(O)cc2)oc2cc(O)cc(O)c12 [Kaempherol, 3,5,7,4′ tetra-hydroxy-flavone] | almost all of the liver cells are normal without containing fat particles | – | – | alive at day 31 | no or a very thin layer of macrophage lipid cell complex
C[C@@H]1O[C@@H](OC[C@H]2O[C@@H](Oc3c(-c4ccc(O)c(O)c4)oc4cc(O)cc(O)c4c3=O)[C@H](O)[C@@H](O)[C@@H]2O)[C@H](O)[C@H](O)[C@H]1O [Rutin, quercetin-3-rutinoside] | – | 45 | no body weight loss | alive at day 31 | –
O=c1c(O)c(-c2ccc(O)c(O)c2)oc2cc(O)cc(O)c12 [Quercetin, 3,5,7,3′,4′ penta-hydroxy flavone] | almost all of the liver cells are normal without containing fat particles | 32 | – | alive at day 31 | no or a very thin layer of macrophage lipid cell complex
